Target: T1, P-selectin (Homo sapiens, UniProt P16109)
T1 sequence (P16109 whole entry): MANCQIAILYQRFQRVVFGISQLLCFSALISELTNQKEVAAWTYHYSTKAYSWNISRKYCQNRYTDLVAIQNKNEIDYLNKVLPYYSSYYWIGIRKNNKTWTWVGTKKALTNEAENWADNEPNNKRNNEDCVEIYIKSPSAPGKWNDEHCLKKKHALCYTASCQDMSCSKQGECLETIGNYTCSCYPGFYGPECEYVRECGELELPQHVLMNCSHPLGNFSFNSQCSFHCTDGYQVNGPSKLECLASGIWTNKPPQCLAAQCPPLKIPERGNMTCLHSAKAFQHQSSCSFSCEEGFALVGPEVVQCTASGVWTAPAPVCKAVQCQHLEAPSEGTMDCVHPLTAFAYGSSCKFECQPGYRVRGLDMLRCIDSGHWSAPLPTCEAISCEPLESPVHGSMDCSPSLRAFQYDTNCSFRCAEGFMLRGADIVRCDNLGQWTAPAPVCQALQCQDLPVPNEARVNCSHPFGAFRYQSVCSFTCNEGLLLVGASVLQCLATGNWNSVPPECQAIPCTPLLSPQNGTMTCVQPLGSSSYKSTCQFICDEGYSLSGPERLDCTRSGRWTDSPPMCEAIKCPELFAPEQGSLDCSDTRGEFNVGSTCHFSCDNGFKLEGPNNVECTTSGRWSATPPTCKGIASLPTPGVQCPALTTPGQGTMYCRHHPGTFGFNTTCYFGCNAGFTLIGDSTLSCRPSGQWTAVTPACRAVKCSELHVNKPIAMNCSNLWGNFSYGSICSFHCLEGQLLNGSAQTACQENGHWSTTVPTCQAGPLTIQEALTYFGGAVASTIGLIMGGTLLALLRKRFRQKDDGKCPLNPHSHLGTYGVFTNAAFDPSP
Test: Inhibitory activity against P-selectin IgG chimeras binding to sLex coating 96 wells using competitive cell-free ELISA assay was determined.

| SMILES | IC50 |
| --- | --- |
| COc1ccc(C2(C(=O)O)CCCCC2)cc1C1OC(CO)C(O)C(O)C1O (stereo unspecified) | 3 µM |
| COc1ccc(CCCC(=O)O)cc1C1OC(C)C(O)C(O)C1O (stereo unspecified) | 5 µM |
| COc1ccc(CC(=O)O)cc1C1OC(C)C(O)C(O)C1O (stereo unspecified) | 1 µM |
| COc1ccc(C2(C(=O)O)CCCCC2)cc1C1OCC(O)C(O)C1O (stereo unspecified) | 8 µM |
| COc1cc(CC(=O)O)c(C2OC(C)C(O)C(O)C2O)c(OC)c1OC (stereo unspecified) | 40 µM |
| COc1ccc(C2(C(=O)O)CCCCC2)cc1[C@H]1O[C@@H](C)[C@H](O)[C@H](O)[C@@H]1O | 22 µM |
| COc1ccc(C2(C(=O)O)CCCCC2)cc1[C@H]1O[C@@H](C)[C@@H](O)[C@H](O)[C@@H]1O | 7 µM |

Target: T2, L-selectin (Homo sapiens, UniProt P14151)
T2 sequence (P14151 whole entry): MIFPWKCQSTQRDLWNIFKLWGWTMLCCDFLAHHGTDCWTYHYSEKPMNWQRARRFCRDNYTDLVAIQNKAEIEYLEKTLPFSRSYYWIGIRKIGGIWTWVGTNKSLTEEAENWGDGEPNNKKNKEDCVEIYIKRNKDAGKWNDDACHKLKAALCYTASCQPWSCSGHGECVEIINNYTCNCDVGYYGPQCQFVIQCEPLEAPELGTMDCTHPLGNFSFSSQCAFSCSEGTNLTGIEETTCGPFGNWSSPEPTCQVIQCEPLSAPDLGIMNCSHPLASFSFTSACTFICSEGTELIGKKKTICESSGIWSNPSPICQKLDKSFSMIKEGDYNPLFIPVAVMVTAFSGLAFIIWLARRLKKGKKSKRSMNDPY
Test: Inhibitory activity against L-selectin IgG chimeras binding to sLex coating 96 wells using competitive cell-free ELISA assay was determined.

| SMILES | IC50 |
| --- | --- |
| COc1ccc(C2(C(=O)O)CCCCC2)cc1C1OC(CO)C(O)C(O)C1O (stereo unspecified) | 1 µM |
| COc1ccc(CCCC(=O)O)cc1C1OC(C)C(O)C(O)C1O (stereo unspecified) | 170 µM |
| COc1ccc(CC(=O)O)cc1C1OC(C)C(O)C(O)C1O (stereo unspecified) | 3 µM |
| COc1ccc(C2(C(=O)O)CCCCC2)cc1C1OCC(O)C(O)C1O (stereo unspecified) | 11 µM |
| COc1cc(CC(=O)O)c(C2OC(C)C(O)C(O)C2O)c(OC)c1OC (stereo unspecified) | 114 µM |
| COc1ccc(C2(C(=O)O)CCCCC2)cc1[C@H]1O[C@@H](C)[C@H](O)[C@H](O)[C@@H]1O | 35 µM |
| COc1ccc(C2(C(=O)O)CCCCC2)cc1[C@H]1O[C@@H](C)[C@@H](O)[C@H](O)[C@@H]1O | 106 µM |

Target: T3, E-selectin (Homo sapiens, UniProt P16581)
T3 sequence (P16581 whole entry): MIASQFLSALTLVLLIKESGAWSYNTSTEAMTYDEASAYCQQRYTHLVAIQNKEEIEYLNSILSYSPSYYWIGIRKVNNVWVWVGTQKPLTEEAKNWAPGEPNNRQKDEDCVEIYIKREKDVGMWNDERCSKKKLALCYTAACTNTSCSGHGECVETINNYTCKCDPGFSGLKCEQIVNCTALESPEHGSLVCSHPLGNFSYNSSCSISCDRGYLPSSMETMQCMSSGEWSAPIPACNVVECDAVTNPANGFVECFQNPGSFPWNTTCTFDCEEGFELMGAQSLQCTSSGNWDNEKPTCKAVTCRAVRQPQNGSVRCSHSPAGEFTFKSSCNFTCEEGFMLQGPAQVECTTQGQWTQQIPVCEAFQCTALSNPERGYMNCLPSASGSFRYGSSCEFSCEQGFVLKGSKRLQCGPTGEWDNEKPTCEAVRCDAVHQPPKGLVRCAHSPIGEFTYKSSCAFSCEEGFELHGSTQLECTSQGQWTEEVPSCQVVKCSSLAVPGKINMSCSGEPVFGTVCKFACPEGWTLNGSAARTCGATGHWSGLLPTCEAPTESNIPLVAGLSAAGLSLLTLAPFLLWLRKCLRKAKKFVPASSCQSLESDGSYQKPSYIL
Test: Inhibitory activity against Selectin E IgG chimeras binding to sLex coating 96 wells using competitive cell-free ELISA assay was determined.

| SMILES | IC50 |
| --- | --- |
| COc1ccc(C2(C(=O)O)CCCCC2)cc1C1OC(CO)C(O)C(O)C1O (stereo unspecified) | > 1000 µM |
| COc1ccc(CCCC(=O)O)cc1C1OC(C)C(O)C(O)C1O (stereo unspecified) | > 1000 µM |
| COc1ccc(CC(=O)O)cc1C1OC(C)C(O)C(O)C1O (stereo unspecified) | > 1000 µM |
| COc1ccc(C2(C(=O)O)CCCCC2)cc1C1OCC(O)C(O)C1O (stereo unspecified) | > 1000 µM |
| COc1cc(CC(=O)O)c(C2OC(C)C(O)C(O)C2O)c(OC)c1OC (stereo unspecified) | > 1000 µM |
| COc1ccc(C2(C(=O)O)CCCCC2)cc1[C@H]1O[C@@H](C)[C@H](O)[C@H](O)[C@@H]1O | > 1000 µM |
| COc1ccc(C2(C(=O)O)CCCCC2)cc1[C@H]1O[C@@H](C)[C@@H](O)[C@H](O)[C@@H]1O | > 1000 µM |

Reference: ChEMBL document CHEMBL1130683, “Aryl C-glycosides: physiologically stable glycomimetics of sialyl Lewis X” (Bioorg Med Chem Lett, 1998)
